From ChEMBL document CHEMBL1201862, “PubChem BioAssay data set” (2004)
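Exposure lasted 48 hours, with cells grown in 96-well plates and compounds tested at five concentrations. Here, GI50 denotes the concentration required for 50% inhibition of growth.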 The source made the active and inactive calls. Cut-off read from the data, not from the text of the source: active = GI50 up to about 1.1 µM and inactive = higher.

Experiments:
Test in all cases: growth of human tumour cells (NCI), 48 h
[1] = test system: A498
[2] = test system: ACHN
[3] = test system: EKVX
[4] = test system: HCT-116
[5] = test system: HL-60
[6] = test system: K562
[7] = test system: Malme-3M
[8] = test system: NCI-H23
[9] = test system: NCI-H460
[10] = test system: NCI-H522
[11] = test system: OVCAR-5
[12] = test system: RXF 393
[13] = test system: SF-539
[14] = test system: SK-MEL-28
[15] = test system: SN12C
[16] = test system: SNB-19
[17] = test system: UACC-257
[18] = test system: UO-31
[19] = test system: MDA-MB-435
[20] = test system: DU-145

| Compound | GI50 [1] | GI50 [2] | GI50 [3] | GI50 [4] | GI50 [5] | GI50 [6] | GI50 [7] | GI50 [8] | GI50 [9] | GI50 [10] | GI50 [11] | GI50 [12] | GI50 [13] | GI50 [14] | GI50 [15] | GI50 [16] | GI50 [17] | GI50 [18] | GI50 [19] | GI50 [20] |
| --- | --- | --- | --- | --- | --- | --- | --- | --- | --- | --- | --- | --- | --- | --- | --- | --- | --- | --- | --- | --- |
| Cc1cccc2cc3cccc(C(=O)NCCN(C)C)c3nc12 | 0.045 µM (active) | 0.0257 µM (active) | 0.362 µM (active) | 0.0354 µM (active) | 0.028 µM (active) | 0.203 µM (active) | 0.139 µM (active) | 0.171 µM (active) | < 0.01 µM (active) | 0.151 µM (active) | 0.292 µM (active) | 0.269 µM (active) | 0.129 µM (active) | 0.519 µM (active) | 0.063 µM (active) | 0.191 µM (active) | 0.245 µM (active) | 0.083 µM (active) |  |  |
| CC(=O)Nc1ccc(C2=N/C(=C\c3ccc(Cl)cc3)C(=O)O2)cc1 | > 100 µM (inactive) | 27.4 µM (inactive) | > 100 µM (inactive) | 36 µM (inactive) | 30.3 µM (inactive) | 19.5 µM (inactive) | 87.7 µM (inactive) | 36.4 µM (inactive) | 69.5 µM (inactive) | 25.4 µM (inactive) | > 100 µM (inactive) | 53.5 µM (inactive) | > 100 µM (inactive) | > 100 µM (inactive) | 28.2 µM (inactive) | 63.7 µM (inactive) | 45.7 µM (inactive) | 26.4 µM (inactive) |  |  |
| CSc1cc(C(C)(C)C)ccc1C(O)c1ccc(C(C)(C)C)cc1SC | 13.2 µM (inactive) | 11.5 µM (inactive) | 6.81 µM (inactive) | 5.56 µM (inactive) | 4.91 µM (inactive) | 7.14 µM (inactive) | 14 µM (inactive) | 8.49 µM (inactive) | 8.2 µM (inactive) | 10.2 µM (inactive) | 14 µM (inactive) | 12.1 µM (inactive) | 16 µM (inactive) | 17.5 µM (inactive) | 13.1 µM (inactive) | 16 µM (inactive) | 10.4 µM (inactive) | 6.37 µM (inactive) |  |  |
| COc1ccc(NCc2cc(OC)cc(OC)c2)cc1 | 27.5 µM (inactive) | 45.6 µM (inactive) | 78.5 µM (inactive) | 15.6 µM (inactive) | 7.6 µM (inactive) | 3.88 µM (inactive) | 40.4 µM (inactive) | 26.3 µM (inactive) | 20.1 µM (inactive) | 7.62 µM (inactive) | 24.7 µM (inactive) | 13.7 µM (inactive) | 16.3 µM (inactive) | 24.5 µM (inactive) | 36.1 µM (inactive) | > 68.4 µM (inactive) | 40.6 µM (inactive) | 35.9 µM (inactive) |  |  |
| CC(=O)Nc1ccc(/C=c2\sc3nnc(/C=C/c4ccccc4)n3c2=O)cc1 | > 50 µM (inactive) | > 50 µM (inactive) | > 50 µM (inactive) | > 50 µM (inactive) | > 50 µM (inactive) | > 50 µM (inactive) | > 50 µM (inactive) | > 50 µM (inactive) | > 50 µM (inactive) | > 50 µM (inactive) | > 50 µM (inactive) | > 50 µM (inactive) | > 50 µM (inactive) | > 50 µM (inactive) | > 50 µM (inactive) | > 50 µM (inactive) | > 50 µM (inactive) | > 50 µM (inactive) |  |  |
| Cc1cc2[nH]c3c(C#N)c(-c4ccccc4)c(/N=N/c4cccc(C(F)(F)F)c4)c(=O)n3c2cc1C | 88.5 µM (inactive) | 37.5 µM (inactive) | 23.4 µM (inactive) | 13.7 µM (inactive) |  | 0.0382 µM (active) | 42.9 µM (inactive) | 14.6 µM (inactive) | 21.4 µM (inactive) | 16 µM (inactive) | > 100 µM (inactive) | 54.5 µM (inactive) | 97.5 µM (inactive) | 39 µM (inactive) | 27.9 µM (inactive) | 35.2 µM (inactive) | 26.8 µM (inactive) | 31.3 µM (inactive) | 38.8 µM (inactive) |  |
| CCc1cccc(C)c1NC(=S)NC(=O)c1ccccc1C(=O)NC(=S)Nc1c(C)cccc1CC | > 100 µM (inactive) | > 100 µM (inactive) | 59.6 µM (inactive) | 71.4 µM (inactive) | 40.6 µM (inactive) | 38.9 µM (inactive) | > 100 µM (inactive) | 35.6 µM (inactive) | 67.8 µM (inactive) | 18.2 µM (inactive) | > 100 µM (inactive) | > 100 µM (inactive) | > 100 µM (inactive) | > 100 µM (inactive) | > 100 µM (inactive) | > 100 µM (inactive) | > 100 µM (inactive) | > 100 µM (inactive) |  |  |
| Cc1ccc(S(=O)(=O)N/N=C2/CCC3(O)CC2(C)CCC2[C@H]3CC2(C)C)cc1 (stereo not given in full) |  | 29.8 µM (inactive) | 31.7 µM (inactive) | 24.8 µM (inactive) | 31.3 µM (inactive) | 16.9 µM (inactive) | 35.3 µM (inactive) | 37.3 µM (inactive) | 22.8 µM (inactive) | 26.2 µM (inactive) | 29.4 µM (inactive) |  |  | 24.9 µM (inactive) | 33.3 µM (inactive) | 37.7 µM (inactive) | 37.8 µM (inactive) | 25.7 µM (inactive) | 27.8 µM (inactive) | 36.6 µM (inactive) |
| CC(C)[Si](OCC1CC(C#N)OC(C)(C)O1)(C(C)C)C(C)C (stereo not given) | 6.3 µM (inactive) | 16 µM (inactive) | 30.3 µM (inactive) | 16.5 µM (inactive) | 13 µM (inactive) | 19 µM (inactive) | 22.9 µM (inactive) | 19.3 µM (inactive) | 16.5 µM (inactive) | 18.2 µM (inactive) | 44 µM (inactive) | 17.1 µM (inactive) | 27.1 µM (inactive) | 39.4 µM (inactive) | 32.4 µM (inactive) | 22 µM (inactive) | 17.3 µM (inactive) | 20.7 µM (inactive) |  |  |
| COC(=O)CC1CC2(C(=O)OC)c3[nH]c4ccccc4c3CCN2C1=O (stereo not given) | > 100 µM (inactive) | > 100 µM (inactive) | > 100 µM (inactive) | > 100 µM (inactive) | > 100 µM (inactive) | > 100 µM (inactive) | > 100 µM (inactive) | > 100 µM (inactive) | > 100 µM (inactive) | > 100 µM (inactive) | > 100 µM (inactive) | > 100 µM (inactive) | > 100 µM (inactive) | > 100 µM (inactive) | > 100 µM (inactive) | > 100 µM (inactive) | > 100 µM (inactive) | > 100 µM (inactive) |  |  |
| CC(C)CCCC(C)[C@H]1CCC2[C@H]3C(CC[C@@]21C)[C@@]1(C)CCC=C[C@]12C[C@@H]2[C@@H]3O (stereo not given in full) | > 100 µM (inactive) | > 100 µM (inactive) | > 100 µM (inactive) | > 100 µM (inactive) | > 100 µM (inactive) |  | > 100 µM (inactive) |  | > 100 µM (inactive) | > 100 µM (inactive) | > 100 µM (inactive) | > 100 µM (inactive) | > 100 µM (inactive) | > 100 µM (inactive) | > 100 µM (inactive) | > 100 µM (inactive) | > 100 µM (inactive) | > 100 µM (inactive) |  |  |
